Test results taken from paper PMC12508460 (Nature Communications, 2025).
Numbering of substitutions follows the chain as printed.

Legend:
WT DP1 = molecular target: T1, WT DP1 (Homo sapiens, UniProt Q13258); assay: Cyclic AMP GloSensor assay
T1 sequence (Q13258 1-359): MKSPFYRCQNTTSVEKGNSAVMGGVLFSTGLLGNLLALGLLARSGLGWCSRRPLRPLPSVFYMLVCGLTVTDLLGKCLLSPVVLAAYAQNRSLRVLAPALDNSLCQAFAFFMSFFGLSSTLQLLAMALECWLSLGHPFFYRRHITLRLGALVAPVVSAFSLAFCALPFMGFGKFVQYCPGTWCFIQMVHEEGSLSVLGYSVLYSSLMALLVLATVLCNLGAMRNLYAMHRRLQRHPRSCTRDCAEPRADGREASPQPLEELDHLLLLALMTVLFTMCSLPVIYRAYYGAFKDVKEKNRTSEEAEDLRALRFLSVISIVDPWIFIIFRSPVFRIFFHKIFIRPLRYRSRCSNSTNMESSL

DP1 R327^8.47A = molecular target: T2, DP1 R327^8.47A (Homo sapiens, UniProt Q13258, R327A); assay: ONE-GO BRET Gs protein activation assay; type: cell-based
T2 sequence (Q13258 1-359 R327A): T1 sequence (Q13258 1-359) with R327A

Row | SMILES | EC50 (WT DP1) | Effect on basal activity of DP1 in cAMP accumulation assays (WT DP1) | Reduction of the potency of PGD2 by the R327^8.47A mutation (DP1 R327^8.47A)
1 | Cc1cc(OC[C@@H]2CN(C)c3ccccc3O2)cc(C)c1C(=O)Nc1ccc(Cl)c(CC(=O)O)c1 [ONO2550289, (S)-2-(2-chloro-5-(2,6-dimethyl-4-((4-methyl-3,4-dihydro-2H-benzo[b][1,4]oxazin-2-yl)methoxy)benzamido)phenyl)acetic acid] | 1.1 nM | fully inhibit the basal activity | –
2 | Cc1cc(OC[C@@H]2CN(C)c3ccccc3O2)cc(C)c1C(=O)Nc1ccc(Cl)c(C2(C(=O)O)CC2)c1 [ONO3030297, (S)-1-(2-chloro-5-(2,6-dimethyl-4-((4-methyl-3,4-dihydro-2H-benzo[b][1,4]oxazin-2-yl)methoxy)benzamido)phenyl)cyclopropane-1-carboxylic acid] | 1.3 nM | fully inhibit the basal activity | –
3 | CCCCC[C@H](O)/C=C/[C@H]1C(=O)C[C@H](O)[C@@H]1C/C=C\CCCC(=O)O [PGD2, Prostaglandin D2] | 6.2 nM | – | over 70 fold
